This assay addresses T1, PKCα (Homo sapiens, UniProt P17252).
T1 construct: isolate and photo-release endogenous PKCa from the undiluted detergent fractionated HeLa cell extracts; endogenous in cells; host or cells: HeLa cells (ATCC)
In words: PMA mediated PKCα sub-cellular translocation, measured by kinase activity after photocleavable antibody isolation. It is filed as cell-based. The conditions noted are these: cultured HeLa cells stimulated with 200 nM PMA for 5 min, detergent fractionated; based on kinase activity of isolated PKCα; n=4. On the procedure: FIG. 20. Phorbol ester (PMA) mediated protein kinase Cα (PKCα) sub-cellular translocation as measured by functional activity following isolation with photocleavable antibodies. Cultured HeLa cells were stimulated with 200 nM PMA for 5 min and detergent fractionated into the cytosol and membrane compartments prior to isolation and purification with the photocleavable antibodies.
Cultured HeLa cells (ATCC; Manassas, Va.) were stimulated for 5 min with 200 nM Phorbol-12-Myristate-13-Acetate (PMA; EMD Biosciences, Inc., San Diego, Calif.) and subsequently detergent fractionated into sub-cellular compartments according to reported procedures [Ramsby et al. (1994) Electrophoresis 15, 265-277; Ramsby & Makowski. (1999) Methods Mol Biol 112, 53-66; Chiang et al. (2000) J Biochem Biophys Methods 46, 53-68]. PMA is a potent activator of PKCα and is well known to cause translocation of the kinase from the cytosolic to the membrane sub-cellular compartments [Ross & Joyner. (1997) Endothelium 5, 321-332; Bazan & Rapoport. (1996) JPharmacol Toxicol Methods 36, 87-95; Yazlovitskaya & Melnykovych. (1995) Cancer Lett 88, 179-183]. […]

As for `CCCCCCCCCCCCCC(=O)O[C@@H]1[C@@H](C)[C@@]2(O)[C@@H](C=C(CO)C[C@]3(O)C(=O)C(C)=C[C@@H]23)[C@@H]2C(C)(C)[C@]12OC(C)=O` [PMA, Phorbol-12-Myristate-13-Acetate], the “relative sub-cellular distribution of PKCα: cytosol” value amounted to 16±4% and the “relative sub-cellular distribution of PKCα: membrane” value is given as 84±3%.
